Results taken from the supplement of paper PMC10307832.

Legend:
Test in all cases: relative viability (nuclei count vs DMSO), 5 days (fraction); higher = more cells survive
[1] = test system: LCLC-103H
Summary of the method: (§1)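 Nuclei were stained with Hoechst during a one-step fixation (final 0.05% Triton X-100, 1% formaldehyde, 1 ug/ml Hoechst) carried out 5 days after dosing, then counted on 4× images. The cells, lung cancer lines in 1536-well plates, had been dosed by pin tool the day after seeding with one drug alone or a fixed anchor-drug dose plus five library-drug doses (not always all listed) in √10 steps. Relative viability is the nuclei count in treated wells divided by that in vehicle wells, and each value is the median of duplicate plates.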

[2] = test system: LXF-289
Summary of the method: as §1

[3] = test system: NCI-H1355
Summary of the method: as §1

[4] = test system: NCI-H1651
Summary of the method: as §1

[5] = test system: NCI-H1755
Summary of the method: as §1

[6] = test system: NCI-H1792
Summary of the method: as §1

[7] = test system: NCI-H1915
Summary of the method: as §1

[8] = test system: NCI-H2347
Summary of the method: as §1

[9] = test system: NCI-H3122
Summary of the method: as §1

[10] = test system: NCI-H322M
Summary of the method: as §1

[11] = test system: NCI-H441
Summary of the method: as §1

[12] = test system: NCI-H460
Summary of the method: as §1

[13] = test system: NCI-H520
Summary of the method: as §1

[14] = test system: NCI-H522
Summary of the method: as §1

[15] = test system: NCI-H596
Summary of the method: as §1

[16] = test system: NCI-H661
Summary of the method: as §1

[17] = test system: NCI-H727
Summary of the method: as §1

[18] = test system: PC-14
Summary of the method: as §1

[19] = test system: RERF-LC-KJ
Summary of the method: as §1

[20] = test system: SK-MES-1
Summary of the method: as §1

[21] = test system: SW 900
Summary of the method: as §1

SMILES: O=c1cc(-c2cccc3c2Sc2ccccc2S3)oc(N2CCOCC2)c1 + Nc1ncn([C@H]2C[C@H](O)[C@@H](CO)O2)c(=O)n1 [Decitabine] (partner 2 µM)
- relative viability ([1]; first compound 0.08 µM): 0.721
- relative viability ([1]; first compound 0.253 µM): 0.716
- relative viability ([1]; first compound 0.8 µM): 0.646
- relative viability ([1]; first compound 2.53 µM): 0.675
- relative viability ([1]; first compound 8 µM): 0.702
- relative viability ([2]; first compound 0.08 µM): 0.389
- relative viability ([2]; first compound 0.253 µM): 0.465
- relative viability ([2]; first compound 0.8 µM): 0.42
- relative viability ([2]; first compound 2.53 µM): 0.439
- relative viability ([2]; first compound 8 µM): 0.416
- relative viability ([3]; first compound 0.08 µM): 0.374
- relative viability ([3]; first compound 0.253 µM): 0.382
- relative viability ([3]; first compound 0.8 µM): 0.342
- relative viability ([3]; first compound 2.53 µM): 0.373
- relative viability ([3]; first compound 8 µM): 0.331
- relative viability ([4]; first compound 0.08 µM): 0.575
- relative viability ([4]; first compound 0.253 µM): 0.766
- relative viability ([4]; first compound 0.8 µM): 0.617
- relative viability ([4]; first compound 2.53 µM): 0.555
- relative viability ([4]; first compound 8 µM): 0.628
- relative viability ([5]; first compound 0.08 µM): 0.716
- relative viability ([5]; first compound 0.253 µM): 0.792
- relative viability ([5]; first compound 0.8 µM): 0.762
- relative viability ([5]; first compound 2.53 µM): 0.688
- relative viability ([5]; first compound 8 µM): 0.79
- relative viability ([6]; first compound 0.08 µM): 0.531
- relative viability ([6]; first compound 0.253 µM): 0.828
- relative viability ([6]; first compound 0.8 µM): 0.45
- relative viability ([6]; first compound 2.53 µM): 0.723
- relative viability ([6]; first compound 8 µM): 0.575
- relative viability ([7]; first compound 0.08 µM): 0.259
- relative viability ([7]; first compound 0.253 µM): 0.277
- relative viability ([7]; first compound 0.8 µM): 0.271
- relative viability ([7]; first compound 2.53 µM): 0.259
- relative viability ([7]; first compound 8 µM): 0.289
- relative viability ([8]; first compound 0.08 µM): 0.606
- relative viability ([8]; first compound 0.253 µM): 0.663
- relative viability ([8]; first compound 0.8 µM): 0.627
- relative viability ([8]; first compound 2.53 µM): 0.616
- relative viability ([8]; first compound 8 µM): 0.629
- relative viability ([9]; first compound 0.08 µM): 0.36
- relative viability ([9]; first compound 0.253 µM): 0.551
- relative viability ([9]; first compound 0.8 µM): 0.45
- relative viability ([9]; first compound 2.53 µM): 0.38
- relative viability ([9]; first compound 8 µM): 0.534
- relative viability ([10]; first compound 0.08 µM): 0.661
- relative viability ([10]; first compound 0.253 µM): 0.73
- relative viability ([10]; first compound 0.8 µM): 0.742
- relative viability ([10]; first compound 2.53 µM): 0.634
- relative viability ([10]; first compound 8 µM): 0.749
- relative viability ([11]; first compound 0.08 µM): 0.221
- relative viability ([11]; first compound 0.253 µM): 0.232
- relative viability ([11]; first compound 0.8 µM): 0.223
- relative viability ([11]; first compound 2.53 µM): 0.257
- relative viability ([11]; first compound 8 µM): 0.265
- relative viability ([12]; first compound 0.08 µM): 0.476
- relative viability ([12]; first compound 0.253 µM): 0.659
- relative viability ([12]; first compound 0.8 µM): 0.462
- relative viability ([12]; first compound 2.53 µM): 0.468
- relative viability ([12]; first compound 8 µM): 0.669
- relative viability ([13]; first compound 0.08 µM): 0.518
- relative viability ([13]; first compound 0.253 µM): 0.623
- relative viability ([13]; first compound 0.8 µM): 0.577
- relative viability ([13]; first compound 2.53 µM): 0.499
- relative viability ([13]; first compound 8 µM): 0.548
- relative viability ([14]; first compound 0.08 µM): 0.693
- relative viability ([14]; first compound 0.253 µM): 0.743
- relative viability ([14]; first compound 0.8 µM): 0.689
- relative viability ([14]; first compound 2.53 µM): 0.66
- relative viability ([14]; first compound 8 µM): 0.796
- relative viability ([15]; first compound 0.08 µM): 0.833
- relative viability ([15]; first compound 0.253 µM): 0.951
- relative viability ([15]; first compound 0.8 µM): 0.989
- relative viability ([15]; first compound 2.53 µM): 0.997
- relative viability ([15]; first compound 8 µM): 0.996
- relative viability ([16]; first compound 0.08 µM): 0.536
- relative viability ([16]; first compound 0.253 µM): 0.572
- relative viability ([16]; first compound 0.8 µM): 0.518
- relative viability ([16]; first compound 2.53 µM): 0.551
- relative viability ([16]; first compound 8 µM): 0.558
- relative viability ([17]; first compound 0.08 µM): 0.704
- relative viability ([17]; first compound 0.253 µM): 1.05
- relative viability ([17]; first compound 2.53 µM): 0.773
- relative viability ([17]; first compound 8 µM): 0.895
- relative viability ([18]; first compound 0.08 µM): 0.213
- relative viability ([18]; first compound 0.253 µM): 0.19
- relative viability ([18]; first compound 0.8 µM): 0.185
- relative viability ([18]; first compound 2.53 µM): 0.165
- relative viability ([18]; first compound 8 µM): 0.217
- relative viability ([19]; first compound 0.08 µM): 0.643
- relative viability ([19]; first compound 0.253 µM): 0.818
- relative viability ([19]; first compound 0.8 µM): 0.709
- relative viability ([19]; first compound 2.53 µM): 0.655
- relative viability ([19]; first compound 8 µM): 0.676
- relative viability ([20]; first compound 0.08 µM): 0.337
- relative viability ([20]; first compound 0.253 µM): 0.406
- relative viability ([20]; first compound 0.8 µM): 0.352
- relative viability ([20]; first compound 2.53 µM): 0.458
- relative viability ([20]; first compound 8 µM): 0.375
- relative viability ([21]; first compound 0.253 µM): 0.453
- relative viability ([21]; first compound 0.8 µM): 0.414
- relative viability ([21]; first compound 2.53 µM): 0.428
- relative viability ([21]; first compound 8 µM): 0.433
